Results: patent US20250171495A1, “MUTLI-TARGETED SERINE PROTEASE INHIBITORS FOR TREATMENT OF CANCER AND VIRAL INFECTION” (Washington University, priority 2023, published 2025)
Like-named read-outs stand apart in the source and are kept apart here.

What was measured:
Type in all cases: biochemical
Factor Xa = target: T1, Factor Xa (Homo sapiens, UniProt P00742); assay: Fluorogenic assay, Factor Xa; conditions: read-out: Factor Xa IC50
T1 construct: TMPRSS2; Matriptase; Hepsin; HGFA; Thrombin; Factor Xa
T1 sequence (P00742 235-488 limits assumed): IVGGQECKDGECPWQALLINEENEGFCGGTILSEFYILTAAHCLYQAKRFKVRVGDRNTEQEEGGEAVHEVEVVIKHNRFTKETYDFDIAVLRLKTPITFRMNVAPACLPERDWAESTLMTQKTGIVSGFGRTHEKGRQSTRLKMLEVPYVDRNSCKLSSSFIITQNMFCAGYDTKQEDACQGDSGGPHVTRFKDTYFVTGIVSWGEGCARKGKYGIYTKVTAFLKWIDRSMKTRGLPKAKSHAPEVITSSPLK
T1 sequence (P00742 41-179 partner limits assumed): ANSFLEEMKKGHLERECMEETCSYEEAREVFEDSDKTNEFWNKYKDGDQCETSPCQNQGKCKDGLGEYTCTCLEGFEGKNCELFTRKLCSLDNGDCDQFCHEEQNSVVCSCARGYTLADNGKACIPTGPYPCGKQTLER

TMPRSS2 = TMPRSS2 (Homo sapiens, UniProt O15393); assay: Fluorogenic kinetic enzyme inhibitor assay, TMPRSS2; set-up: purchased Cusabio Technology CSB-YP023924HU
TMPRSS2, sequence (O15393 106-492 limits assumed): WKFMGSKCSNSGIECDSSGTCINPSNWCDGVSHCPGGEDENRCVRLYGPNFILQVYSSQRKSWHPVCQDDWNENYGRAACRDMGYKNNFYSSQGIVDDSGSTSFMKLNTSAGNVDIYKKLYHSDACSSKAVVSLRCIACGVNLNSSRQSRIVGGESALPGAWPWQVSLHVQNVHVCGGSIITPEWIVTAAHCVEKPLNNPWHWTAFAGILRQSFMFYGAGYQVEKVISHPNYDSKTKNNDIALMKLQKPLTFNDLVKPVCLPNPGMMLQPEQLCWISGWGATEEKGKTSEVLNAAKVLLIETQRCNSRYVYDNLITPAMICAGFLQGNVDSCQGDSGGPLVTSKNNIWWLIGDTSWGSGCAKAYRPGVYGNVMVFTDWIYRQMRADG

HGFA = target: T2, HGFA (Homo sapiens, UniProt Q04756); assay: Fluorogenic kinetic enzyme inhibitor assay, HGFA
T2 construct: purchased R&D Systems 1514-SE-010
T2 sequence (Q04756 408-655 limits assumed): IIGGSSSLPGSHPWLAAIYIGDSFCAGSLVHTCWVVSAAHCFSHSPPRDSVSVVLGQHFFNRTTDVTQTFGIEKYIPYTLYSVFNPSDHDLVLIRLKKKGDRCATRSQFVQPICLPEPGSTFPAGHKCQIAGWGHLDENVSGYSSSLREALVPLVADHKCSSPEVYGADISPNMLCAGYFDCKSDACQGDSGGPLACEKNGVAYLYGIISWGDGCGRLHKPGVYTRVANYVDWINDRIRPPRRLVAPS
T2 sequence (Q04756 373-407 partner limits assumed): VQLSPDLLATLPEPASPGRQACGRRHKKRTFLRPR

matriptase = target: T3, matriptase (Homo sapiens, UniProt Q9Y5Y6); assay: Fluorogenic kinetic enzyme inhibitor assay, matriptase
T3 construct: purchased R&D Systems 3946-SEB-010
T3 sequence (Q9Y5Y6 615-855 limits assumed): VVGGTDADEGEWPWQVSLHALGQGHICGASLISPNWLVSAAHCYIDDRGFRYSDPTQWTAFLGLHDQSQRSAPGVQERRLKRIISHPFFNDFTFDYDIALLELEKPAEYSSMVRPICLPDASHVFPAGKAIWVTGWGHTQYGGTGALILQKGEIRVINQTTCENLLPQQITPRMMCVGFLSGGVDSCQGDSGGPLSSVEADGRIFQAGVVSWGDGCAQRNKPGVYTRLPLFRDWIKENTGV

hepsin = target: T4, hepsin (Homo sapiens, UniProt P05981); assay: Fluorogenic kinetic enzyme inhibitor assay, hepsin
T4 construct: purchased R&D Systems 4776-SE-010
T4 sequence (P05981 163-417 limits assumed): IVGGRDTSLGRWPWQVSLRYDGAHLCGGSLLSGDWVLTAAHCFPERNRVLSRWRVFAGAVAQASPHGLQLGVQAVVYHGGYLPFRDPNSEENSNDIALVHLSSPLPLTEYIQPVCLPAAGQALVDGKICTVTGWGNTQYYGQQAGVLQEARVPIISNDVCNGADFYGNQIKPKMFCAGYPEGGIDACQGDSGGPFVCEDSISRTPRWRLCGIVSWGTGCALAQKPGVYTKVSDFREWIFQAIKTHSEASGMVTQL
T4 sequence (P05981 1-162 partner limits assumed): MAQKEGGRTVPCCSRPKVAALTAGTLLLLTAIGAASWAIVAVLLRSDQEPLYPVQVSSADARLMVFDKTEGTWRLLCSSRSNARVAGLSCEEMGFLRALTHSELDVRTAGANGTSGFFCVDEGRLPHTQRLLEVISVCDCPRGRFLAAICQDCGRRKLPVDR

Thrombin = Thrombin (Homo sapiens, UniProt P00734); assay: Fluorogenic assay, thrombin
[1] = 30 min incubation, Boc-QLR-AMC at Km, read-out: HGFA IC50
[2] = 30 min incubation, Boc-QAR-AMC at Km, read-out: Hepsin IC50

Structure (SMILES) | IC50 (Factor Xa) [nM] | IC50 (TMPRSS2; read-out: TMPRSS2 IC50) [nM] | IC50 (HGFA; read-out: HGFA IC50) [nM] | IC50 (matriptase; read-out: Matriptase IC50) [nM] | IC50 (hepsin; read-out: Hepsin IC50) [nM] | IC50 (HGFA; [1]) [nM] | other results
CCC(C)[C@H](NC(C)=O)C(=O)N[C@@H](CCC(N)=O)C(=O)N[C@@H](Cc1ccccc1)C(=O)N[C@@H](CCCNC(=N)N)C(=O)c1nc2ccccc2s1 (stereo partly drawn) [MM3116, N-[(S)-1-[N-(S)-1-[(1,3-benzothiazol-2-yl)carbonyl]-4-guanidinobutylcarbamoyl]-2-phenylethyl](S)-2-[(2S)-2-acetylamino-3-methylvalerylamino]glutaramide] | 792 | 1.73 | 30 | 0.92 | 0.14 | – | –
CC(=O)NCC(=O)N[C@@H](CCC(N)=O)C(=O)N[C@@H](Cc1ccccc1)C(=O)N[C@@H](CCCNC(=N)N)C(=O)c1nc2ccccc2s1 [MM3122, N-[(S)-1-[N-(S)-1-[(1,3-benzothiazol-2-yl)carbonyl]-4-guanidinobutylcarbamoyl]-2-phenylethyl](S)-2-[(acetylaminomethyl)carbonylamino]glutaramide] | 700 | 0.03 | – | 0.314 | 0.194 | – | IC50 (HGFA): 32.5 nM
CC(=O)N1CCC[C@H]1C(=O)N[C@@H](CCC(N)=O)C(=O)N[C@@H](Cc1ccccc1)C(=O)N[C@@H](CCCNC(=N)N)C(=O)c1nc2ccccc2s1 [MM3123, N-[(S)-1-[N-(S)-1-[(1,3-benzothiazol-2-yl)carbonyl]-4-guanidinobutylcarbamoyl]-2-phenylethyl](S)-2-[(S)-1-acetyl-2-pyrrolidinylcarbonylamino] glutaramide] | 199 | 0.06 | 75 | 0.316 | – | – | IC50 (hepsin): 0.135 nM
CC(=O)N[C@@H](CCC(N)=O)C(=O)N[C@@H](Cc1ccccc1)C(=O)N[C@@H](CCCNC(=N)N)C(=O)c1nc2ccccc2s1 [MM3144, N-[(S)-1-[N-(S)-1-[(1,3-benzothiazol-2-yl)carbonyl]-4-guanidinobutylcarbamoyl]-2-phenylethyl](S)-2-acetylaminoglutaramide] | 4.5 | – | – | – | – | 14 | –
CCC(C)[C@H](NC(C)=O)C(=O)N[C@@H](CCC(N)=O)C(=O)N[C@H](C(=O)N[C@H](CCCNC(=N)N)C(=O)c1nc2ccccc2s1)C(C)C (stereo partly drawn) [MM3180-1, N-[(S)-2-methyl-1-[N-(R)-1-[(1,3-benzothiazol-2-yl)carbonyl]-4-guanidinobutylcarbamoyl]propyl](S)-2-[(2S)-2-acetylamino-3-methylvalerylamino]glutaramide] | > 20000 | 2.89 | 14600 | – | – | – | IC50 (Thrombin): > 20 µM
CC(=O)N[C@H]1CC(=O)NCCCC[C@@H](C(=O)N[C@@H](CCCNC(=N)N)C(=O)c2nc3ccccc3s2)NC(=O)[C@H](CCC(N)=O)NC1=O [VD3152, N-[(S)-1-[(1,3-benzothiazol-2-yl)carbonyl]-4-guanidinobutyl]-(3S,6S,14S)-6-acetylamino-3-(2-carbamoylethyl)-2,5,8-trioxo-1,4,9-triaza-14-cyclotetradecane-carboxamide] | – | 24.3 | – | 7.7 | – | 16100 | IC50 (Thrombin): > 20 µM
CC(=O)N[C@H]1Cc2ccc(cc2)OC/C=C\CNC(=O)CC[C@@H](C(=O)N[C@@H](CCCNC(=N)N)C(=O)c2nc3ccccc3s2)NC(=O)[C@H](CC(C)C)NC1=O [VD4018, N-[(S)-1-[(1,3-benzothiazol-2-yl)carbonyl]-4-guanidinobutyl]-(4Z,11S,14S,17S)-17-acetylamino-14-isobutyl-8,13,16-trioxo-2-oxa-7,12,15-triazabicyclo[17.2.2]tricosa-1(21),4,19,22-tetraene-11-carboxamide] | 12400 | – | – | – | – | 6500 | IC50 (TMPRSS2; 30 min incubation, Boc-QAR-AMC at Km, read-out: TMPRSS2 IC50): 2.48 nM
CC(=O)N[C@H]1Cc2ccc(cc2)OC/C=C\CNC(=O)C[C@@H](C(=O)N[C@@H](CCCNC(=N)N)C(=O)c2nc3ccccc3s2)NC(=O)[C@H](CC(C)C)NC1=O [VD4054, N-[(S)-1-[(1,3-benzothiazol-2-yl)carbonyl]-4-guanidinobutyl]-(4Z,10S,13S,16S)-16-acetylamino-13-isobutyl-8,12,15-trioxo-2-oxa-7,11,14-triazabicyclo[16.2.2]docosa-1(20),4,18,21-tetraene-10-carboxamide] | 3180 | 21.6 | > 20000 | 44 | – | – | IC50 (hepsin; [2]): 0.99 nM
CC(=O)N[C@H]1Cc2ccc(cc2)OCCCC[C@@H](C(=O)N[C@@H](CCCNC(=N)N)C(=O)c2nc3ccccc3s2)NC(=O)[C@H](Cc2ccccc2)NC1=O [VD4111B, N-[(S)-1-[(1,3-benzothiazol-2-yl)carbonyl]-4-guanidinobutyl]-(7S,10S,13S)-13-acetylamino-10-benzyl-9,12-dioxo-2-oxa-8,11-diazabicyclo[13.2.2]nonadeca-1(17),15,18-triene-7-carboxamide] | 8700 | 16.4 | – | – | – | – | IC50 (Thrombin): > 20 µM
CC(=O)N[C@H]1Cc2ccc(cc2)Oc2ccc(cc2)C[C@@H](C(=O)N[C@H](CCCNC(=N)N)C(=O)c2nc3ccccc3s2)NC(=O)[C@H](CC(C)C)NC1=O [VD5076A, N-[(R)-1-[(1,3-benzothiazol-2-yl)carbonyl]-4-guanidinobutyl]-(8S,11S,14S)-14-acetylamino-11-isobutyl-10,13-dioxo-2-oxa-9,12-diazatricyclo[14.2.2.2^3,^6]docosa-1(18),3,5,16,19,21-hexaene-8-carboxamide] | – | 489 | 2900 | – | 55.3 | – | IC50 (matriptase): 2370 nM
CC(=O)N[C@H]1Cc2cccc(c2)Oc2ccc(cc2)C[C@@H](C(=O)N[C@H](CCCNC(=N)N)C(=O)c2nc3ccccc3s2)NC(=O)[C@H](CC(C)C)NC1=O [VD5123A, N-{(R)-1-[(1,3-benzothiazol-2-yl)carbonyl]-4-guanidinobutyl}-(9S,12S,15S)-9-acetylamino-12-isobutyl-10,13-dioxo-2-oxa-11,14-diazatricyclo [15.2.2.1^3,^7]docosa-1(19),3(22),4,6,17,20-hexaene-15-carboxamide] | – | 1.78 | 17300 | – | 146 | – | IC50 (matriptase): 478 nM
CC(=O)N[C@H]1Cc2cccc(c2)Oc2ccc(cc2)C[C@@H](C(=O)N[C@@H](CCCNC(=N)N)C(=O)c2nc3ccccc3s2)NC(=O)[C@H](CC(C)C)NC1=O [VD5123B, N-[(S)-1-[(1,3-benzothiazol-2-yl)carbonyl]-4-guanidinobutyl]-(9S,12S,15S)-9-acetylamino-12-isobutyl-10,13-dioxo-2-oxa-11,14-diazatricyclo[15.2.2.1^3,^7] docosa-1(19),3,5,7(22), 17,20-hexaene-15-carboxamide] | – | 15.2 | – | 140 | – | 3980 | IC50 (hepsin; [2]): 36.9 nM
CC(=O)N[C@@H](CO)C(=O)N[C@@H](CCC(N)=O)C(=O)N[C@@H](CC(C)C)C(=O)N[C@@H](CCCNC(=N)N)C(=O)c1nccs1 [ZFH6138, N-[(S)-3-methyl-1-[N-(S)-4-guanidino-1-[(1,3-thiazol-2-yl)carbonyl]butylcarbamoyl]butyl](S)-2-[(S)-2-acetylamino-3-hydroxypropionylamino]glutaramide] | – | 1.54 | – | – | 0.68 | – | IC50 (HGFA): 364 nM; IC50 (matriptase): 18 nM
CC(=O)N[C@@H](CC(C)C)C(=O)N[C@@H](CC(C)C)C(=O)N[C@@H](CCCNC(=N)N)C(=O)c1nccs1 [ZFH6201-1, N-[(S)-4-guanidino-1-[(1,3-thiazol-2-yl)carbonyl]butyl](S)-2-[(S)-2-acetylamino-4-methylvalerylamino]-4-methylvaleramide] | – | 44.2 | 506 | 56 | 4.6 | – | –
CC(=O)N[C@@H](CCCCN)C(=O)N[C@@H](CCC(N)=O)C(=O)N[C@@H](CC(C)C)C(=O)N[C@@H](CCCNC(=N)N)C(=O)c1nc2ccccc2s1 [ZFH7006, N-[(S)-3-methyl-1-[N-(S)-1-[(1,3-benzothiazol-2-yl)carbonyl]-4-guanidinobutylcarbamoyl]butyl](S)-2-[(S)-1-acetylamino-5-aminopentylcarbonyl-amino]glutaramide] | 258 | – | – | 1.1 | 0.17 | 60 | IC50 (TMPRSS2): 18.1 nM
CC(=O)N[C@@H](CO)C(=O)N[C@@H](CCCCN)C(=O)N[C@@H](CC(C)C)C(=O)N[C@@H](CCCNC(=N)N)C(=O)c1nc2ccccc2s1 [ZFH7053, N-[(S)-3-methyl-1-[N-(S)-1-[(1,3-benzothiazol-2-yl)carbonyl]-4-guanidinobutylcarbamoyl]butyl](S)-2-[(S)-2-acetylamino-3-hydroxypropionylamino]-6-aminohexanamide] | 3800 | – | – | 6.1 | 0.32 | 66 | IC50 (TMPRSS2): 39.2 nM
